Results: ChEMBL document CHEMBL1667832, “Potent and selective cyclohexyl-derived imidazopyrazine insulin-like growth factor 1 receptor inhibitors with in vivo efficacy” (Bioorg Med Chem Lett, 2011)

What was measured:
[1] = Oral bioavailability in mouse at 5 mg/kg; type: ADME, organism-based; conditions: in vivo
[2] = Clearance in mouse at 2 mg/kg, iv; type: ADME, organism-based; parameters: dose 2 mg/kg, route intravenous; conditions: in vivo
[3] = AUC in mouse at 5 mg/kg, po; type: ADME, organism-based; parameters: dose 5 mg/kg, route oral; conditions: plasma
[4] = Permeability of the compound at pH 5 by PAMPA; type: ADME; conditions: read-out: permeability
[5] = Cmax in mouse at 5 mg/kg, po; type: ADME, organism-based; parameters: dose 5 mg/kg, route oral; conditions: in vivo
[6] = Permeability of the compound at pH 7.4 by PAMPA; type: ADME; conditions: read-out: permeability
[7] = Volume of distribution at steady state in mouse at 2 mg/kg, iv; type: ADME, organism-based; parameters: dose 2 mg/kg, route intravenous; conditions: in vivo, read-out: Vdss
[8] = Volume of distribution at steady state in mouse at 5 mg/kg, iv; type: ADME, organism-based; parameters: dose 5 mg/kg, route intravenous; conditions: in vivo, read-out: Vdss
[9] = Cmax in mouse at 25 mg/kg, po; type: ADME, organism-based; parameters: dose 25 mg/kg, route oral; conditions: in vivo
[10] = AUC in mouse at 25 mg/kg, po; type: ADME, organism-based; parameters: dose 25 mg/kg, route oral; conditions: plasma
[11] = Oral bioavailability in mouse at 25 mg/kg; type: ADME, organism-based; conditions: in vivo
[12] = Clearance in mouse at 5 mg/kg, iv; type: ADME, organism-based; parameters: dose 5 mg/kg, route intravenous; conditions: in vivo
[13] = Physiological stability of the compound in simulated intestinal fluid assessed as formation of 4-(8-amino-1-(8-fluoro-2-phenylquinolin-7-yl)imidazo[1,5-a]pyrazin-3-yl)cyclohexanecarboxylic acid; type: physicochemical; conditions: simulated gi fluid
Cytochrome P450 2C19 = Cytochrome P450 2C19 (Homo sapiens, UniProt P33261); test: Inhibition of CYP2C19; type: ADME
Mus musculus [14] = test: Toxicity in human GEO cells xenografted nu/nu CD-1 mouse assessed as mortality at 60 mg/kg, po qd for 14 days; type: organism-based; parameters: dose 60 mg/kg, route oral; conditions: in vivo, 336 h
Cytochrome P450 2D6 = Cytochrome P450 2D6 (Homo sapiens, UniProt P10635); test: Inhibition of CYP2D6; type: ADME
[15] = Physiological stability of the compound in simulated intestinal fluids assessed as formation of 4-(8-amino-1-(8-fluoro-2-phenylquinolin-7-yl)imidazo[1,5-a]pyrazin-3-yl)cyclohexanecarboxylic acid at 2 uM; type: physicochemical; conditions: simulated gi fluid
Mus musculus [16] = test: Toxicity in human GEO cells xenografted nu/nu CD-1 mouse assessed as effect on blood glucose level at 60 mg/kg, po qd for 14 days; type: organism-based; parameters: dose 60 mg/kg, route oral; conditions: in vivo, 336 h
[17] = Physiological stability of the compound in simulated gastric fluids assessed as formation of 4-(8-amino-1-(8-fluoro-2-phenylquinolin-7-yl)imidazo[1,5-a]pyrazin-3-yl)cyclohexanecarboxylic acid at 2 uM; type: physicochemical; conditions: simulated gi fluid
[18] = Antitumor activity against human GEO cells xenografted in nu/nu CD-1 mouse assessed as tumor growth inhibition at 60 mg/kg, po qd for 14 days; type: functional; conditions: 336 h, read-out: TGI
Cytochrome P450 2C9 = Cytochrome P450 2C9 (Homo sapiens, UniProt P11712); test: Inhibition of CYP2C9; type: ADME
Cytochrome P450 3A4 = Cytochrome P450 3A4 (Homo sapiens, UniProt P08684); test: Inhibition of CYP3A4; type: ADME
Cytochrome P450 1A2 = target: T1, Cytochrome P450 1A2 (Homo sapiens, UniProt P05177); test: Inhibition of CYP1A2; type: ADME
T1 sequence (P05177 whole entry): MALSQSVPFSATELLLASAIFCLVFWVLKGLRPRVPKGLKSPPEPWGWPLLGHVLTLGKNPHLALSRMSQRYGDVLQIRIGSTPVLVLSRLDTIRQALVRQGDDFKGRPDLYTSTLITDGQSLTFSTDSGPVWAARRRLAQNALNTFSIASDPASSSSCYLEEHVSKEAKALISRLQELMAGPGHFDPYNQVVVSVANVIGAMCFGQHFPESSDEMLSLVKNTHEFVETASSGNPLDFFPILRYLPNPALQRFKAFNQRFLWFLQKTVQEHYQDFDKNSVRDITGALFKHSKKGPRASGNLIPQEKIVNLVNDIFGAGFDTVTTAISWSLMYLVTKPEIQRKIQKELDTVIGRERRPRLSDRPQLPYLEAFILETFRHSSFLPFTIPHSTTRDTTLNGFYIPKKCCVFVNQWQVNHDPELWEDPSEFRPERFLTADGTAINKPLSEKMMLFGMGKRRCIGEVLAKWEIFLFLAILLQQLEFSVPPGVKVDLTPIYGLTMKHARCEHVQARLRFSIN

[19] = Genotoxicity in Salmonella Typhimurium by Ames test in presence of S9 fractions; type: toxicity, S9 Fraction; conditions: salmonella enterica subsp. enterica serovar typhimurium

Sequence of Cytochrome P450 2C19 (P33261 whole entry): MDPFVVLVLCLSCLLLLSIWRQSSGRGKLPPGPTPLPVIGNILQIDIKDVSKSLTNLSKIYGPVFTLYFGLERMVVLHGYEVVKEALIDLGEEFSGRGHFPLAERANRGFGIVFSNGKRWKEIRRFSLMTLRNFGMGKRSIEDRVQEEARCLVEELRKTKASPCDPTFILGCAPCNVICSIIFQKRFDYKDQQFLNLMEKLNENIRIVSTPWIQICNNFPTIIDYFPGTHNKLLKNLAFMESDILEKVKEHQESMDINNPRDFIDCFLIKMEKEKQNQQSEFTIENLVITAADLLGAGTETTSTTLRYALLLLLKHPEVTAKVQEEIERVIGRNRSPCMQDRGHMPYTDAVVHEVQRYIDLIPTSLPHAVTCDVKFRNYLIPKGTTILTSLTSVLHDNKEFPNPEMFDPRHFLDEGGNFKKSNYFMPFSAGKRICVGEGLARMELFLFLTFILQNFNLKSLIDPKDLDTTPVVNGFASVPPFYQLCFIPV
Sequence of Cytochrome P450 3A4 (P08684 whole entry): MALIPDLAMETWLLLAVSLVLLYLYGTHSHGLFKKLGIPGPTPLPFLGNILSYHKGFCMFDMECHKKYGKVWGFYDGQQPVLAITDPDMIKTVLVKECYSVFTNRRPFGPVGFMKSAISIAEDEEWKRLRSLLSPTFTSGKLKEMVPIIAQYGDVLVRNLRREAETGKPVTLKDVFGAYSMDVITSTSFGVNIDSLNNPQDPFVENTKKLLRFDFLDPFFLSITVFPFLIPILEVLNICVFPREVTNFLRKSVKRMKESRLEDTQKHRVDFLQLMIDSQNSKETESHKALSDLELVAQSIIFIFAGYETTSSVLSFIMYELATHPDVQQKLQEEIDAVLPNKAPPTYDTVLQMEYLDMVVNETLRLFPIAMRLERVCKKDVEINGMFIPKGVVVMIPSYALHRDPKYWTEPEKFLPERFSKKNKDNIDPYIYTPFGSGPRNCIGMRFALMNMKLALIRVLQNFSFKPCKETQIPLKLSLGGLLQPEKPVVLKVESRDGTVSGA
Sequence of Cytochrome P450 2D6 (P10635 whole entry): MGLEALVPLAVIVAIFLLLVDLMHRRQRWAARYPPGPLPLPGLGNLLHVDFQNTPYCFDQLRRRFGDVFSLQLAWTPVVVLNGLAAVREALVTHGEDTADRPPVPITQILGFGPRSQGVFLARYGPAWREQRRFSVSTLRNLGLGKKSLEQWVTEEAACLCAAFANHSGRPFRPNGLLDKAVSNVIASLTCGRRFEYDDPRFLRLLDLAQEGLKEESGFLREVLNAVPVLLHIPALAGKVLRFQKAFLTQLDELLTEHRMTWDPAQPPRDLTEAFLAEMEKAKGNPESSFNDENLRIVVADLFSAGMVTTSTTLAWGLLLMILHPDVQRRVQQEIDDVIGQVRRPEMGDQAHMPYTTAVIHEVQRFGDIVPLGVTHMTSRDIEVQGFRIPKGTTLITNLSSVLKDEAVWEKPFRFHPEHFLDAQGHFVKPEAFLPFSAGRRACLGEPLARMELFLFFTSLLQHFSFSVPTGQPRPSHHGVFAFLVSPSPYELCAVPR
Sequence of Cytochrome P450 2C9 (P11712 whole entry): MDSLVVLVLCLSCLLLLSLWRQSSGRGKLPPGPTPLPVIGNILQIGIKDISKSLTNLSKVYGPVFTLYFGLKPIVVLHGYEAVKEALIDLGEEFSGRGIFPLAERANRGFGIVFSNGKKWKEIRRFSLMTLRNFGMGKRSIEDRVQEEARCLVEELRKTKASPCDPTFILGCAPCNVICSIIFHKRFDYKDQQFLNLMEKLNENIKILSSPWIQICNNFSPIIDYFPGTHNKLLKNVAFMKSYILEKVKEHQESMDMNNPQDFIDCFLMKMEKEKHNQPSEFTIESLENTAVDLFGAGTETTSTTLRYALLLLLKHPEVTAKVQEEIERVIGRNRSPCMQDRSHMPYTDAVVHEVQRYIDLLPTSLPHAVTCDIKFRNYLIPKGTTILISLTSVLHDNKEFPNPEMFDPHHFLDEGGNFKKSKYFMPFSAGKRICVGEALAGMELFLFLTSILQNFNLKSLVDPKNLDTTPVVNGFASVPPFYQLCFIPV

Row | Papp [4] [×10⁻⁶ cm/s] | Papp [6] [×10⁻⁶ cm/s] | Vd [8] [L/kg] | Cmax [9] [nM] | AUC [10] [ng·h/mL] | bioavailability [11] [%] | clearance [12] [mL/min/kg] | SMILES | other results
1 | 880 | > 1000 |  |  |  |  |  | Nc1nccn2c1c(-c1ccc3ccc(-c4ccccc4)nc3c1F)nc2[C@H]1CC[C@H](CO)CC1 | bioavailability [1]: 23%; clearance [2]: 197 mL/min/kg; AUC [3]: 100 ng·h/mL; Cmax [5]: 110 nM; Vd [7]: 7 L/kg
2 | > 1000 | > 1000 | 2.8 | 5500 | 7970 | 51 | 26 | Nc1nccn2c1c(-c1ccc3ccc(-c4ccccc4)nc3c1F)nc2[C@H]1CC[C@H](C(=O)O)CC1 | 
3 | 45 | 63 | 2.6 | 1900 | 3570 | 24 | 38 | Nc1nccn2c1c(-c1ccc3ccc(-c4ccccc4)nc3c1F)nc2[C@H]1CC[C@H](C(N)=O)CC1 | 
4 | 73 | 86 | 3.2 | 130 | 297 | 5 | 73 | Nc1nccn2c1c(-c1ccc3ccc(-c4ccccc4)nc3c1F)nc2[C@H]1CC[C@H](C(=O)Nc2nncs2)CC1 | Stability [13]: Unstable

Row | SMILES | Papp [4] [×10⁻⁶ cm/s] | Papp [6] [×10⁻⁶ cm/s] | Vd [8] [L/kg] | Cmax [9] [nM] | AUC [10] [ng·h/mL] | bioavailability [11] [%] | clearance [12] [mL/min/kg] | other results
5 | Nc1nccn2c1c(-c1ccc3ccc(-c4ccccc4)nc3c1F)nc2[C@H]1CC[C@H](C(=O)Nc2nc3ccccc3[nH]2)CC1 | 538 | 766 | 0.43 | 28000 | 158000 | 50 | 1 | IC50 (Cytochrome P450 2C19): > 20 µM; Activity (Mus musculus [14]): Non-toxic; IC50 (Cytochrome P450 2D6): > 20 µM; Stability [15]: Stable; Activity (Mus musculus [16]): Non-toxic; Stability [17]: Stable; inhibition in vivo at 60 mg/kg [18]: 98%; IC50 (Cytochrome P450 2C9): 9.8 µM; IC50 (Cytochrome P450 3A4): > 20 µM; IC50 (Cytochrome P450 1A2): > 20 µM; Activity [19]: Non-toxic
